From patent US4486586A, “Cephalosporin derivatives” (Bristol-Myers Company, priority 1983, dated 1984)
Converted amounts (≈) assume the structure as drawn.

Tests used:
[1] = tested on: Cephalothinresistant E. coli and Kl. pneumoniae; test: MIC, two-fold serial agar dilution in Mueller-Hinton agar, group (G-)-Ib; format: cell-based, E. coli (3 strains) and Kl. pneumoniae (3 strains); settings: read-out: Geometric Mean of MIC, (G-)-Ib
Procedure: (§1) In the primary evaluation of the compounds of this invention, the Minimum Inhibitory Concentrations (MIC's) of the compounds were determined by the two-fold serial agar dilution method in Mueller-Hinton agar against 32 strains of test organisms in six groups.
(G-)Ib: Cephalothinresistant E. coli (3 strains) and Kl. pneumoniae (3

[2] = tested on: Penicillinresistant S. aureus; test: MIC, two-fold serial agar dilution in Mueller-Hinton agar, group (G+)-Ib; format: cell-based; settings: Staphylococcus aureus, penicillin-resistant S. aureus, 5 strains, read-out: Geometric Mean of MIC, (G+)-Ib
Procedure: as §1
(G+)Ib: Penicillinresistant S. aureus (5

[3] = tested on: Penicillinsensitive S. aureus; test: MIC, two-fold serial agar dilution in Mueller-Hinton agar, group (G+)-Ia; format: cell-based; settings: Staphylococcus aureus, penicillin-sensitive S. aureus, 5 strains, read-out: Geometric Mean of MIC, (G+)-Ia
Procedure: as §1

[4] = tested on: M. morganii, Ent. cloacae and Ser. marcescens; test: MIC, two-fold serial agar dilution in Mueller-Hinton agar, group (G-)-II; format: cell-based; settings: 5 strains, read-out: Geometric Mean of MIC, (G-)-II
Procedure: as §1
(G-)II: M. morganii (1 strain), Ent. cloacae (2 strains) andSer.

[5] = tested on: Cephalothinsensitive E. coli, Kl. pneumoniae and Pr. mirabilis; test: MIC, two-fold serial agar dilution in Mueller-Hinton agar, group (G-)-Ia; format: cell-based; settings: cephalothin-sensitive E. coli, 5 strains, read-out: Geometric Mean of MIC, (G-)-Ia
Procedure: as §1
(G-)Ia: Cephalothinsensitive E. coli (2 strains), Kl. pneumoniae (1
strain) and Pr. mirabilis (2 strains)

Ps. aeruginosa = test: MIC, two-fold serial agar dilution in Mueller-Hinton agar, group (G-)-III; format: cell-based; settings: Pseudomonas aeruginosa, 7 strains, read-out: Geometric Mean of MIC, (G-)-III
Procedure: as §1
(G-)III: Ps. aeruginosa (7 strains)

In the case of `CSc1scc[n+]1C/C=C/C1=C(C(=O)[O-])N2C(=O)C(NC(=O)/C(=N\OC(C)(C)C(=O)O)c3csc(N)n3)[C@H]2SC1` (stereo partly drawn) [Compound I-4G, 7-[(Z)-2-(2-Aminothiazol-4-yl)-2-(2-carboxy-2-propoxyimino)acetamido]-3-[(E)-3-(2-methylthio-3-thiazolio)-1-propen-1-yl]-3-cephem-4-carboxylate], the MIC [1] was 0.22 µg/mL (≈ 0.352 µM), the MIC [2] was 5.4 µg/mL (≈ 8.64 µM) and the MIC [3] was 1.8 µg/mL (≈ 2.88 µM). It also gave an MIC [4] of 0.2 µg/mL (≈ 0.32 µM), an MIC [5] of 0.021 µg/mL (≈ 0.0336 µM) and an MIC (Ps. aeruginosa) of 3.5 µg/mL (≈ 5.6 µM).
